Assay type in all cases: functional, organism-based
In test [1] the test system is Plasmodium falciparum. The test can be described thus: Inhibitory concentration (IC50) against chloroquine-resistant falciparum Indochina W2 in human malaria.
For test [2], the system named is Plasmodium falciparum. The test can be described thus: Inhibitory concentration (IC50) against chloroquine-sensitive falciparum sierra leone […] in human malaria.
In test [3] the test system is Plasmodium falciparum. The test can be described thus: Inhibitory concentration IC50 against chloroquine-resistant falciparum indochina(W-2) malaria in humans; 7079-48759.
The test system of test [4] is Plasmodium falciparum. The experiment in a line: Inhibitory concentration (IC50) against chloroquine-sensitive falciparum sierra leone […] in human malaria; 10000-46608.
Test [5] concerns Plasmodium falciparum. The experiment in a line: Inhibitory concentration (IC50) against chloroquine-sensitive falciparum sierra leone […] in human malaria; 979-50000.
Test [6] relates to Plasmodium falciparum. The experiment in a line: Inhibitory concentration (IC50) against chloroquine-resistant falciparum indochina W-2 in human malaria; 60-50000.
Test [7] concerns Plasmodium falciparum. The experiment in a line: Inhibitory concentration (IC50) against chloroquine-sensitive falciparum sierra leone […] in human malaria; 9569-21648.
Test [8] concerns Plasmodium falciparum. The experiment in a line: Inhibitory concentration IC50 against chloroquine-resistant falciparum W-2 indochina human malaria; 8000-18088.
[9] abbreviates: Plasmodium falciparum, read-out: IC50.

The IC50 is the concentration at which inhibition is half-maximal.

≈ marks a conversion by molar mass, not a printed value.

With `C[C@H]1OC2CCC1OO2` (stereo partly specified), the IC50 turned out to be 13.1 µg/mL (≈ 101 µM) in test [1] (setting [9]) and 8.46 µg/mL (≈ 65 µM) in test [2].

Turning to `CC12CCC(CO1)OO2` (stereo unspecified), the IC50 in test [1] is over 100 µg/mL; in test [2], 50 µg/mL (≈ 384 µM).

Regarding `C[C@@H]1OC2CCC1OO2` (stereo partly specified), the IC50 in test [1] (setting [9]) turned out to be 28.8 µg/mL (≈ 222 µM); in test [2], 28.5 µg/mL (≈ 219 µM).

As to `CO[C@]1(C)CC[C@@H](OO)CO1`, the values for the IC50 in test [3] and in test [4] were 7.08 µg/mL (≈ 43.6 µM) and 10 µg/mL (≈ 61.7 µM), respectively.

As for `COC1CC[C@@H]([C@H](C)O)OO1` (stereo partly specified), the IC50 in test [1] (setting [9]) turned out to be 12.3 µg/mL (≈ 75.7 µM); in test [2], 7.35 µg/mL (≈ 45.3 µM).

On to `COC1CCC(OO)CO1` (stereo unspecified), for which the IC50 came to 1.05 µg/mL (≈ 7.06 µM) in test [1] (setting [9]) and 0.472 µg/mL (≈ 3.19 µM) in test [2].

As for `COC1CCC(CO)OO1` (stereo unspecified), the results for the IC50 in test [1] (setting [9]) and in test [2] were 0.454 µg/mL (≈ 3.06 µM) and 0.531 µg/mL (≈ 3.58 µM), respectively.

In the case of `C1CC2OCC1OO2` (stereo unspecified), the IC50 in test [5] was 0.979 µg/mL (≈ 8.43 µM); in test [6] it was 0.06 µg/mL (≈ 0.517 µM).

As to `CO[C@H]1CC[C@H](OO)[C@@H](C)O1`, the IC50 was 3.44 µg/mL (≈ 21.2 µM) in test [1] (setting [9]) and 1.01 µg/mL (≈ 6.2 µM) in test [2].

Consider `CO[C@H]1CC[C@@H](OO)[C@@H](C)O1`, for which the IC50 in test [7] came out at 9.57 µg/mL (≈ 59 µM); in test [8], 8 µg/mL (≈ 49.3 µM).

As to `C[C@@H]1CC[C@H]2[C@@H](C)C(=O)O[C@@H]3O[C@@]4(C)CC[C@@H]1[C@]32OO4` [ARTEMISININ], the midpoint of inhibition in test [2], the IC50, lay at 0.00202 µg/mL (≈ 0.00715 µM).

For the origin of these results see ChEMBL document CHEMBL1152074, “Synthesis and antimalarial evaluation of 2,3,5-trioxabicyclo[2.2.2]octanes, models for the putative pharmacophore of qinghaosu (artemisinin)” (Bioorg Med Chem Lett, 1992).
